# Measured values from patent US5616732A, “Intermediates for difluoroprostacyclins and methods for their production” (Asahi Glass Company Ltd., priority 1994, dated 1997).
# Where two headings read alike, the source gives them in different places.
# Experiments:
# human platelets = assay: Platelet aggregation inhibitory activities in vitro (ADP-induced, human platelet-rich plasma); type: cell-based; conditions: for IC50: Homo sapiens, Platelet, ADP final concentration 4 μM, 37° C.; for platelet aggregation inhibitory activities (in words): compared with natural type prostacyclin or other compounds
# Experimental: Platelet aggregation inhibitory activities of test compounds in vitro were measured by using human platelets.
# Into a plastic container containing one volume of a 3.8% sodium citrate solution, 9 volumes of blood of a healthy person was collected, and the container was gently turned over for admixing. The mixture was centrifugally separated at 1,000 rpm for 10 minutes at room temperature, whereupon the supernatant was taken as a platelet-rich plasma (PRP). The lower layer was further centrifugally separated at 3,000 rpm for 15 minutes at room temperature, whereupon the supernatant was taken as a platelet-poor plasma (PPP). PRP was diluted with PPP so that the number of platelets became about 30×10^4 /μl. An aggregometer was calibrated, and then 200 μl of PRP thus prepared was heated at 37° C. for one minute. Then, 25 μl of a solution obtained by diluting a test compound with a physiological sodium chloride solution, was added thereto, and the mixture was heated at 37° C. for one minute. Then, […] of an adenosine-5'-1.5 sodium diphosphate (ADP, Sigma) solution was added thereto so that the final concentration would be 4 μM, whereby the change in transmittance was recorded by the aggregometer. The transmittance was measured with respect to the solution immediately after dissolving the test compound in the physiological sodium chloride solution and the solution after leaving it at 25° C. for 24 hours. The solution of the test compound was dissolved in a physiological sodium chloride solution and then used by diluting it with a physiological sodium chloride solution.
# Aggregation inhibition (%)=(1-T/T0)×100
# T0 : Transmittance in the case where the physiological sodium chloride solution was added.
# T: Transmittance in the case where the test compound was added.
# [1] = Stability test in an aqueous solution; type: physicochemical; conditions: for half-life / remaining at 168 h / remaining at 480 h: physiological saline, 25° C., 10 μg/ml in physiological sodium chloride solution; for remaining at 168 h: 7 days, read-out: Remaining ratio 7 days; for remaining at 480 h: 20 days, read-out: Remaining ratio 20 days
# Experimental: A test compound was dissolved in ethanol to a concentration of 1 mg/ml. Then, it was diluted with a physiological sodium chloride solution to obtain a solution having a concentration of 10 μg/ml. The solution was stored at 25° C., and the remaining ratio of the test compound was measured as time passed. The remaining ratio was quantitatively analyzed by an internal standard (methyl benzoate) method using high performance liquid chromatography (Shimadzu LC9A, SPC-6AU; Milipore 805-DS). The column used was YMC AM312 (ODS), and the eluent used was a solvent mixture of acetonitrile and a 1% triethylamine-phosphoric acid buffer solution (pH6.3).
# [2] = cited from earlier work
# [3] = solution immediately after dissolving, read-out: IC50 Immediately after preparation
# [4] = solution left at 25° C. for 24 hours, read-out: IC50 24 hours later
SMILES,IC50 (human platelets; [3]),IC50 (human platelets; [4]),half-life [1],remaining at 168 h [1],remaining at 480 h [1],platelet aggregation inhibitory activities (in words) (human platelets),physiological activities (in words) (human platelets; stated generally as physiological activities),chemical stability (in words) [1],"half-life ([2]; as mentioned above, conditions not restated)",half-life in an aqueous solution ([2]; pH7.48 at 25° C.),half-life ([2]; reported in literature)
"O=C(O)CCC/C=C1\O[C@H]2C[C@@H](O)[C@H](/C=C/[C@@H](O)C3CCCC3)[C@H]2C1(F)F [Compound 13, sodium 5-[(1S,5R,6R,7R)-2-oxa-4,4-difluoro-7-hydroxy-6-{(3S)-3-cyclopentyl-3-hydroxy-E-1-propenyl}bicylco[3.3.0]octan-3-ylidene]pentanoate]",0.0663 µg/mL,0.0629 µg/mL,> 90 days,100%,98%,,,,,,
CCCCC[C@H](O)/C=C/[C@@H]1[C@H]2C/C(=C/CCCC(=O)O)O[C@H]2C[C@H]1O [natural type prostacyclin],,,,,,,,,about 10 minutes,10.5 min,
"CCC#CC[C@H](C)[C@H](O)/C=C/[C@@H]1[C@@H]2[C@H](C[C@H]1O)O/C(=C\CCCC(=O)O)C2(F)F [Compound 17, sodium 5-[(1S,5R,6R,7R)-2-oxa-4,4-difluoro-7-hydroxy-6-{(3S,4S)-3-hydroxy-4-methyl-E-1-nonen-6-ynyl}bicyclo[3.3.0]octan-3-ylidene]pentanoate]",0.00038 µg/mL,0.00039 µg/mL,> 90 days,102%,100%,even higher activities than natural type prostacyclin,,,,,
"CCCCC[C@H](O)C#C[C@@H]1[C@H]2C/C(=C/CCCC(=O)O)O[C@H]2C(F)(F)[C@H]1O [10,10-difluoro-13,14-dehydroprostacyclin]",,,,,,,,,,,about 24 hours
"CCC#CCC(C)[C@H](O)/C=C/[C@@H]1[C@@H]2[C@H](C[C@H]1O)O/C(=C\CCCC(=O)O)C2(F)F (stereo partly drawn) [Compound 15, sodium 5-[(1S,5R,6R,7R)-2-oxa-4,4-difluoro-7-hydroxy-6-{(3S,4RS)-3-hydroxy-4-methyl-E-1-nonen-6-ynyl}bicyclo-[3.3.0]octan-3-ylidene]pentanoate]",0.00079 µg/mL,0.00078 µg/mL,> 90 days,98.9%,97.8%,even higher activities than natural type prostacyclin,,,,,
"CCCC[C@H](C)C[C@H](O)/C=C/[C@@H]1[C@@H]2[C@H](C[C@H]1O)O/C(=C\CCCC(=O)O)C2(F)F [Compound 11, sodium 5-[(1S,5R,6R,7R)-2-oxa-4,4-difluoro-7-hydroxy-6-{(3S,5S)-3-hydroxy-5-methyl-E-1-nonenyl}bicyclo[3.3.0]octan-3-ylidene]pentanoate]",0.0086 µg/mL,0.0078 µg/mL,> 90 days,102%,96.8%,activities close to natural type prostacyclin,,,,,
"CCCCC[C@H](O)/C=C/[C@@H]1[C@@H]2[C@H](C[C@H]1O)O/C(=C\CCCC(=O)O)C2(F)F [Compound 19, sodium 5-[(1S,5R,6R,7R)-2-oxa-4,4-difluoro-7-hydroxy-6-{(3S)-3-hydroxy-E-1-octenyl}bicyclo[3.3.0]octan-3-ylidene]pentanoate]",0.0561 µg/mL,0.0604 µg/mL,> 90 days,99.3%,97.2%,,,,,,

# Continued, in another order:
IC50 (human platelets; [3]),IC50 (human platelets; [4]),half-life [1],remaining at 168 h [1],remaining at 480 h [1],SMILES,platelet aggregation inhibitory activities (in words) (human platelets),physiological activities (in words) (human platelets; stated generally as physiological activities),chemical stability (in words) [1],"half-life ([2]; as mentioned above, conditions not restated)",half-life in an aqueous solution ([2]; pH7.48 at 25° C.),half-life ([2]; reported in literature)
0.027 µg/mL,0.0281 µg/mL,> 90 days,101%,99.8%,"CCC#CCC(C)[C@@H](O)/C=C/[C@@H]1[C@@H]2[C@H](C[C@H]1O)O/C(=C\CCCC(=O)O)C2(F)F (stereo partly drawn) [Compound 25, sodium 5-[(1S,5R,6R,7R)-2-oxa-4,4-difluoro-7-hydroxy-6-{(3R,4RS)-3-hydroxy-4-methyl-E-1-none-6-ynyl}bicyclo[3.3.0]octan-3-ylidene]pentanoate]",,,,,,
0.0021 µg/mL,> 0.2 µg/mL,,,,"CCCCC[C@H](O)/C=C/[C@@H]1[C@H]2C/C(=C/CCCC(=O)O)O[C@H]2C[C@H]1O [PGI2 Na, reference compound]",,,,,,
0.0737 µg/mL,0.0758 µg/mL,> 90 days,99.5%,97%,"CCCCC[C@H](O)C#C[C@@H]1[C@@H]2[C@H](C[C@H]1O)O/C(=C\CCCC(=O)O)C2(F)F [Compound 31, sodium 5-[(1S,5R,6R,7R)-2-oxa-4,4-difluoro-7-hydroxy-6-{(3S)-3-hydroxy-1-octynyl}bicyclo[3.3.0]octan-3-ylidene]pentanoate, reference compound]",low activities as compared with other compounds,physiological activities are inadequate and substantially lower than natural type prostacyclin,chemical stability substantially equal to other compounds,,,
> 0.2 µg/mL,> 0.2 µg/mL,> 90 days,99.1%,99.3%,"Cc1cccc(C[C@@H](O)/C=C/[C@@H]2[C@@H]3[C@H](C[C@H]2O)O/C(=C\CCCC(=O)O)C3(F)F)c1 [Compound 29, sodium 5-[(1S,5R,6R,7R)-2-oxa-4,4-difluoro-7-hydroxy-6-{(3R)-3-hydroxy-4-(3-methylphenyl)-E-1-butenyl}bicyclo[3.3.0]octan-3-ylidene]pentanoate]",,,,,,
0.059 µg/mL,0.0582 µg/mL,> 90 days,100%,100%,CCCC[C@H](C)C[C@@H](O)/C=C/[C@@H]1[C@@H]2[C@H](C[C@H]1O)O/C(=C\CCCC(=O)O)C2(F)F [Compound 23],,,,,,
0.0087 µg/mL,0.0089 µg/mL,> 90 days,101%,100%,"Cc1cccc(C[C@H](O)/C=C/[C@@H]2[C@@H]3[C@H](C[C@H]2O)O/C(=C\CCCC(=O)O)C3(F)F)c1 [Compound 21, sodium 5-[(1S,5R,6R,7R)-2-oxa-4,4-difluoro-7-hydroxy-6-{(3S)-3-hydroxy-4-(3-methylphenyl)-E-1-butenyl}bicyclo[3.3.0]octan-3-ylidene]pentanoate]",,,,,,
0.0084 µg/mL,0.008 µg/mL,> 90 days,99.5%,100%,CCC#CC[C@H](C)[C@@H](O)/C=C/[C@@H]1[C@@H]2[C@H](C[C@H]1O)O/C(=C\CCCC(=O)O)C2(F)F [Compound 27],activities close to natural type prostacyclin,,,,,
